Experimental data: ChEMBL document CHEMBL5649166, “RIP3 induces apoptosis independent of pronecrotic kinase activity” (Mol Cell, 2014)
Calls of active or inactive are those of the source. No cut-off for these calls is given here.

What was measured:
[1] = molecular target: Serine/threonine-protein kinase 24 (Homo sapiens) (UniProt Q9Y6E0); experiment: Inhibition of human MST3/STK24 using myelin basic protein as substrate at 1 uM in presence of 32P-ATP by Hotspot assay relative to control; values are per cent of control
[2] = molecular target: Protein kinase C eta type (Homo sapiens) (UniProt P24723); experiment: Inhibition of human PKCeta using ERMRPRKRQGSVRRRV as substrate at 1 uM in presence of 32P-ATP by Hotspot assay relative to control; values are per cent of control
[3] = molecular target: Ribosomal protein S6 kinase alpha-4 (Homo sapiens) (UniProt O75676); experiment: Inhibition of human MSK2/RPS6KA4 using GRPRTSSFAEG as substrate at 1 uM in presence of 32P-ATP by Hotspot assay relative to control; values are per cent of control
[4] = molecular target: T1, Testis-specific serine/threonine-protein kinase 1 (Homo sapiens) (UniProt Q9BXA7); experiment: Residual activity of human STK22D/TSSK1 using KKKVSRSGLYRSPSMPENLNRPR as substrate at 1 uM in presence of 32P-ATP by Hotspot assay relative to control
T1 sequence (whole entry): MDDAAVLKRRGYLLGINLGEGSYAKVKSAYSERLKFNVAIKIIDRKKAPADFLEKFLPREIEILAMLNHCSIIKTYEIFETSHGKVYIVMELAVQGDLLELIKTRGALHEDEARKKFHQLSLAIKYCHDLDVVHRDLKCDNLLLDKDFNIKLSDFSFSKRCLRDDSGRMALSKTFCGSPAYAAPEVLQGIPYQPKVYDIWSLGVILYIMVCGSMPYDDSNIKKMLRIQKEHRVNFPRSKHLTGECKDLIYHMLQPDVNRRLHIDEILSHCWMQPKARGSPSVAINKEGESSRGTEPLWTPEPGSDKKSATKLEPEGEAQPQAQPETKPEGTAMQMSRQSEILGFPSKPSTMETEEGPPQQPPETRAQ

[5] = test system: Peritoneal macrophage cell; experiment: Inhibition of TNF-alpha induced necroptosis in thioglycolate-elicited mouse peritoneal macrophage assessed as increase in cell viability at 0.04 to 1 uM incubated for 24 hrs in presence of zVAD and SMAC007 by Cell Titer-Glo luminescent cell viability assay; format: functional, cell-based; conditions: dose 0.04-1 µM
[6] = molecular target: Tyrosine-protein kinase ABL1 (Homo sapiens) (UniProt P00519); experiment: Inhibition of human ABL1 using EAIYAAPFAKKK as substrate at 1 uM in presence of 32P-ATP by Hotspot assay relative to control; values are per cent of control
[7] = molecular target: T2, Tyrosine-protein kinase TXK (Homo sapiens) (UniProt P42681); experiment: Inhibition of human TXK using EAIYAAPFAKKK as substrate at 1 uM in presence of 32P-ATP by Hotspot assay relative to control; values are per cent of control
T2 sequence (whole entry): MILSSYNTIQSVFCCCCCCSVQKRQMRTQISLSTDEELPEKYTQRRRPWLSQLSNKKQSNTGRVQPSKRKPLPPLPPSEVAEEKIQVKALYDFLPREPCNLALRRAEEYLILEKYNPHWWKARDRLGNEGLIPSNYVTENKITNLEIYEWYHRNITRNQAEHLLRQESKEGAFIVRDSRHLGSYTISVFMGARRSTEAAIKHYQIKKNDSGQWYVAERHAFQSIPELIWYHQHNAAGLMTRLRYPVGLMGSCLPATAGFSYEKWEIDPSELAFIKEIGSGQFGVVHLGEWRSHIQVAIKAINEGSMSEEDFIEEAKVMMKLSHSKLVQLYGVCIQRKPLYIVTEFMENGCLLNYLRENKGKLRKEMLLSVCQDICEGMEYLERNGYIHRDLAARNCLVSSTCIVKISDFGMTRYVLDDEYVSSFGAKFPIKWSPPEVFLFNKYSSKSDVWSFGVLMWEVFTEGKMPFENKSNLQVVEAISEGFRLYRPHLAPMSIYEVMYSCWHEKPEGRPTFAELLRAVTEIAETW

[8] = molecular target: Ephrin type-A receptor 7 (Homo sapiens) (UniProt Q15375); experiment: Inhibition of human EPHA7 using poly[Glu:Tyr] (4:1) as substrate at 1 uM in presence of 32P-ATP by Hotspot assay relative to control; values are per cent of control
[9] = molecular target: T3, cAMP-dependent protein kinase catalytic subunit PRKX (Homo sapiens) (UniProt P51817); experiment: Inhibition of human PRKX using LRRASLG as substrate at 1 uM in presence of 32P-ATP by Hotspot assay relative to control; values are per cent of control
T3 sequence (whole entry): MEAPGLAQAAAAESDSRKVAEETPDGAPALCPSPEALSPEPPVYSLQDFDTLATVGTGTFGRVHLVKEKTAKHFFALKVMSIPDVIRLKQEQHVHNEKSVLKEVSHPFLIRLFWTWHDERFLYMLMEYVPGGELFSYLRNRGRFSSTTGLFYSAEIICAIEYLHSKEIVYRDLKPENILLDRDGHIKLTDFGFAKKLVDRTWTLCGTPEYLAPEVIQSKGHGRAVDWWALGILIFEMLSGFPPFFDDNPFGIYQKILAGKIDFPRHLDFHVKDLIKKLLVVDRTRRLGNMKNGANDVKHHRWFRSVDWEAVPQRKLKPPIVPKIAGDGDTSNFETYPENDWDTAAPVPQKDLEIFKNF

[10] = molecular target: Maternal embryonic leucine zipper kinase (Homo sapiens) (UniProt Q14680); experiment: Inhibition of human MELK using KKLNRTLSFAEPG as substrate at 1 uM in presence of 32P-ATP by Hotspot assay relative to control; values are per cent of control
[11] = molecular target: Tyrosine-protein kinase Fyn (Homo sapiens) (UniProt P06241); experiment: Inhibition of human FYN using poly[Glu:Tyr] (4:1) as substrate at 1 uM in presence of 32P-ATP by Hotspot assay relative to control; values are per cent of control
[12] = molecular target: Serine/threonine-protein kinase MARK2 (Homo sapiens) (UniProt Q7KZI7); experiment: Inhibition of human MARK2/PAR-1Ba using KKKVSRSGLYRSPSMPENLNRPR as substrate at 1 uM in presence of 32P-ATP by Hotspot assay relative to control; values are per cent of control
[13] = molecular target: Aurora kinase B (Homo sapiens) (UniProt Q96GD4); experiment: Inhibition of human Aurora B using H-LRRASLG as substrate at 1 uM in presence of 32P-ATP by Hotspot assay relative to control; values are per cent of control
Sequence of Aurora kinase B (Homo sapiens) (Q96GD4 whole entry): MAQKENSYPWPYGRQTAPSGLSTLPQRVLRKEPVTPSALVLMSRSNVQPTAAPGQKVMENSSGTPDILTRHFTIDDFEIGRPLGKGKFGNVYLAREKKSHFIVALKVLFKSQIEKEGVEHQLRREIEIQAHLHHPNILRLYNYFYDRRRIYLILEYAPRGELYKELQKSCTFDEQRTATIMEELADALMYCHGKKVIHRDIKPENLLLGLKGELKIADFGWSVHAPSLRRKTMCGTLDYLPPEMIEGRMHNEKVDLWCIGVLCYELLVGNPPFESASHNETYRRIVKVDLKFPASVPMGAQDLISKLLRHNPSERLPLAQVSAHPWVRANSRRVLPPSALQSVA

Sequence of Maternal embryonic leucine zipper kinase (Homo sapiens) (Q14680 whole entry, looked up): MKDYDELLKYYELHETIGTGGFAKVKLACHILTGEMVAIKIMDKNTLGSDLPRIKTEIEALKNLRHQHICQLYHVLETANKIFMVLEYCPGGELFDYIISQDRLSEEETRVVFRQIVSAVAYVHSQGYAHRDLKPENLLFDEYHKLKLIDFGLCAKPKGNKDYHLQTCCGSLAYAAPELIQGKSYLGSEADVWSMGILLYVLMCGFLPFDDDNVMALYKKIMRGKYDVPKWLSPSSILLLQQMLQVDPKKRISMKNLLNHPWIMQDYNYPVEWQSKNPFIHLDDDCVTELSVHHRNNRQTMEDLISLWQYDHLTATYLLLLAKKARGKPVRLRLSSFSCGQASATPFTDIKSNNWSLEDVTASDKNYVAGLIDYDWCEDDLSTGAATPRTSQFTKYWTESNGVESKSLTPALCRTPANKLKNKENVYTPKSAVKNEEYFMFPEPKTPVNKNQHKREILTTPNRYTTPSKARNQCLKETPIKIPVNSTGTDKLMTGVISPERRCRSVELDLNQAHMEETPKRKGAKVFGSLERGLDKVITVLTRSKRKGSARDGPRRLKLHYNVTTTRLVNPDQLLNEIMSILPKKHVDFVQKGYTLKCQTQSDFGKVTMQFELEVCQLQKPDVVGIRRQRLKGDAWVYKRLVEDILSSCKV
Sequence of Serine/threonine-protein kinase 24 (Homo sapiens) (Q9Y6E0 whole entry, looked up): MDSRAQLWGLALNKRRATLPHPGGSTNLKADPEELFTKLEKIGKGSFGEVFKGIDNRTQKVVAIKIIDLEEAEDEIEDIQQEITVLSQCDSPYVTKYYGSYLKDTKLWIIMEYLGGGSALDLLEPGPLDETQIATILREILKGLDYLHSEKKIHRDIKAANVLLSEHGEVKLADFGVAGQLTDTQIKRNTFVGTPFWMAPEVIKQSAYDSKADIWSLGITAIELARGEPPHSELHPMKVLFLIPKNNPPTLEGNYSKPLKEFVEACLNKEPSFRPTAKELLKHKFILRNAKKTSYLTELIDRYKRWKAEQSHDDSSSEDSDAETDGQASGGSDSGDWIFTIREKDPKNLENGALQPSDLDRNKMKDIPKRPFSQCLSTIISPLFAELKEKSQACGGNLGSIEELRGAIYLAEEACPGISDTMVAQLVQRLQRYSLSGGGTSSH
Sequence of Tyrosine-protein kinase Fyn (Homo sapiens) (P06241 2-537 limits assumed): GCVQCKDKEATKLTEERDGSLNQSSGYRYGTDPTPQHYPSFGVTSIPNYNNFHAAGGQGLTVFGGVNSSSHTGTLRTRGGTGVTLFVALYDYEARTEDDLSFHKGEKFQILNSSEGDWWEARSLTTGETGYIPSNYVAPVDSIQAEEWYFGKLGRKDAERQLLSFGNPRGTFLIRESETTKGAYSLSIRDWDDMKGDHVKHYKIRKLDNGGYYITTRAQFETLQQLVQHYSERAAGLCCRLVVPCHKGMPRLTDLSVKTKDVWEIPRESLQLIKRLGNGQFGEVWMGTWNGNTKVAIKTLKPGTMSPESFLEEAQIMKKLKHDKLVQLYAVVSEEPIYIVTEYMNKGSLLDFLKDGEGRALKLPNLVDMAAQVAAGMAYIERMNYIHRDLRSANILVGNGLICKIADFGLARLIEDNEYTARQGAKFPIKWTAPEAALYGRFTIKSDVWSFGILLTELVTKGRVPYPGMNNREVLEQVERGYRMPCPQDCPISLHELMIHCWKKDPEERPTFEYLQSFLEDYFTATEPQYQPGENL
Sequence of Tyrosine-protein kinase ABL1 (Homo sapiens) (P00519 whole entry): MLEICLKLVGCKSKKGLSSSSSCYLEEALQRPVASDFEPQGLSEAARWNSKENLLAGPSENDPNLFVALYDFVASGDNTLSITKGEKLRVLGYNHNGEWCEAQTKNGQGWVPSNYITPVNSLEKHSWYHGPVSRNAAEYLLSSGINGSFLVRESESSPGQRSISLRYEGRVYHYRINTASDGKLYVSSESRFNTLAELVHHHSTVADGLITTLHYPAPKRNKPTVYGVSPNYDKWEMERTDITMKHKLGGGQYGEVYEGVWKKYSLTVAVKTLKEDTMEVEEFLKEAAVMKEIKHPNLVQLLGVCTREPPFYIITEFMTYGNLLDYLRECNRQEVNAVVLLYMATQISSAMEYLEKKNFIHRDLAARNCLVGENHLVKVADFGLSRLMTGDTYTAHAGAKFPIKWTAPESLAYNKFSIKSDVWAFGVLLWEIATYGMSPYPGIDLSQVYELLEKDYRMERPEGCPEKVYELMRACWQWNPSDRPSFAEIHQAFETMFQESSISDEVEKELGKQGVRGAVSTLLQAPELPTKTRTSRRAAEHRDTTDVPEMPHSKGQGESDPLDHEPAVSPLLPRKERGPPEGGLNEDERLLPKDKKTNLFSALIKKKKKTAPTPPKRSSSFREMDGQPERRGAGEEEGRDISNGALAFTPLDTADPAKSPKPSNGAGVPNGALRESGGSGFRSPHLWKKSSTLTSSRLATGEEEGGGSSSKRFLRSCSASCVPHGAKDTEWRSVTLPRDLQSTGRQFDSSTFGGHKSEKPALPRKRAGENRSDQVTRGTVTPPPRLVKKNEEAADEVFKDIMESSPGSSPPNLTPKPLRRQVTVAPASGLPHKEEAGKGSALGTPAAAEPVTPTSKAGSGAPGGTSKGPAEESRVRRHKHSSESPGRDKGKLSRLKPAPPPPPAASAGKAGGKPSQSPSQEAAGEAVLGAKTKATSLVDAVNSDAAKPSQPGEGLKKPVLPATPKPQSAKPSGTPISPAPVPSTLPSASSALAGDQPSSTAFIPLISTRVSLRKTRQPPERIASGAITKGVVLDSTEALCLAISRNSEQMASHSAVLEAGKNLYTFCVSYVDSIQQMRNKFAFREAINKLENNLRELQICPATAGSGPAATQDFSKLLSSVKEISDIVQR
Sequence of Ribosomal protein S6 kinase alpha-4 (Homo sapiens) (O75676 whole entry, looked up): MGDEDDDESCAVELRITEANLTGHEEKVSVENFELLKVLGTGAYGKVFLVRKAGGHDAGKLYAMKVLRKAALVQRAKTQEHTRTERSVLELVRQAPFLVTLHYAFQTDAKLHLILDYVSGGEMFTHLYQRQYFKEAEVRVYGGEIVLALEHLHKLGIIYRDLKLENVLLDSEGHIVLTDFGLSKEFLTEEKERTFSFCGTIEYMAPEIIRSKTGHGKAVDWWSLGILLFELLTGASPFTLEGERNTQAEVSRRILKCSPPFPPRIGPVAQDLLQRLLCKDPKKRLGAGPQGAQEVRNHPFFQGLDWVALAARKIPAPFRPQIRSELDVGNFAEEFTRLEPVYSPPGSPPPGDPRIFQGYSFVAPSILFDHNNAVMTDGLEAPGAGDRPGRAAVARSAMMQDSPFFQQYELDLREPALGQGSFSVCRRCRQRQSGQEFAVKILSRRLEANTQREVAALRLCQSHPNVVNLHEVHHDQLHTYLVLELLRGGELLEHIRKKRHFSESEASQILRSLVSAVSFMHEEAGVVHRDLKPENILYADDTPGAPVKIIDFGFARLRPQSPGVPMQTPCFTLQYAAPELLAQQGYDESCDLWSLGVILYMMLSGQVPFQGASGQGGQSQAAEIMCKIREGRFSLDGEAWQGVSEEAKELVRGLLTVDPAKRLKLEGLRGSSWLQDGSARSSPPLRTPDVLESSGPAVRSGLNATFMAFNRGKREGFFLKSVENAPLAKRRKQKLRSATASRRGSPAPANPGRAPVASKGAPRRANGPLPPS
Sequence of Protein kinase C eta type (Homo sapiens) (P24723 whole entry): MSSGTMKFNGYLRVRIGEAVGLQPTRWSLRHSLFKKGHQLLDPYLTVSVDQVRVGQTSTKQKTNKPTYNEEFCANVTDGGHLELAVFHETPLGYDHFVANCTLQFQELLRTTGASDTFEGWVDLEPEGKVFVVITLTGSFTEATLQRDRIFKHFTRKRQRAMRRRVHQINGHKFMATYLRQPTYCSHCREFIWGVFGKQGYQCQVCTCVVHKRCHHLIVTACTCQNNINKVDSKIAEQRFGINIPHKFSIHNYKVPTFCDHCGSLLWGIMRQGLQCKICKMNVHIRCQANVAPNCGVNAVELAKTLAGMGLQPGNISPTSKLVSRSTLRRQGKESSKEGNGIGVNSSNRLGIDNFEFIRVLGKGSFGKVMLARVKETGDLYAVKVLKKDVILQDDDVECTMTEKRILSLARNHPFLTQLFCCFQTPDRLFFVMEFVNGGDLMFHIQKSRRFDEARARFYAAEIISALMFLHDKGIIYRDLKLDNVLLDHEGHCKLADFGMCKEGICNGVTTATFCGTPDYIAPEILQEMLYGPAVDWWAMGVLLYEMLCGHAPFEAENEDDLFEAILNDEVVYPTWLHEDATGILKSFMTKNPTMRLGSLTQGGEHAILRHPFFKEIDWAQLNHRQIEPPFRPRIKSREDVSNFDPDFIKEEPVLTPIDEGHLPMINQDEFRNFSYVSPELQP

| Compound | residual activity [1] [%] | residual activity [2] [%] | residual activity [3] [%] | residual activity [4] [%] | inhibition [5] | residual activity [6] [%] | residual activity [7] [%] | residual activity [8] [%] | residual activity [9] [%] | residual activity [10] [%] | residual activity [11] [%] | residual activity [12] [%] | residual activity [13] [%] |
| --- | --- | --- | --- | --- | --- | --- | --- | --- | --- | --- | --- | --- | --- |
| CNC(=O)c1ccc2c(c1)ncn2-c1ccc(CC(=O)OC(C)(C)C)cc1 | 94 | 92.5 | 96.9 | 89.2 | inactive | 92.7 | 84.2 | 87.8 | 93.6 | 105 | 79.4 | 95.6 | 82.1 |
| Cc1cc(-c2cnc(N)c3c(-c4ccc5scnc5c4)csc23)n(C)n1 | 93.9 | 73.6 | 99.3 | 101 | Active | 6.1 | 33.2 | 101 | 94.2 | 88.2 | 5.73 | 95.2 | 89.8 |
| CC(C)S(=O)(=O)c1ccc2nccc(Nc3ccc4scnc4c3)c2c1 | 100 | 88 | 95.4 | 98.6 | Active | 25.8 | 47.4 | 90.8 | 101 | 96.5 | 18 | 96.6 | 97.5 |
